Laboratory results published in patent US20180177845A1, “METHOD FOR TREATMENT OR PREVENTION OF A CANCER” (priority 2016, published 2018).
Where no end group is shown, it is not given here.

Assays:
[1] = test system: MDA-MB-231 cells; assay: anchorage-independent growth in soft agar assay, MDA-MB-231; assay type: cell-based, human; conditions: in comparison with the TAT alone, peptide 10 μM or 50 μM
Procedure: Experiments were performed as previously described'^9, with the following modifications. A total of 5×10^4 cells were seeded in 0.3% agar in DMEM plus 10% […] and EGF (10 ng/ml) over the bottom 0.6% agar layer in DMEM. After incubation for 14 days, the number of colonies was scored.

[2] = test system: β4 integrin/FAK complex; assay: co-immunoprecipitation of β4 integrin and FAK in MDA-MB-231 cells; assay type: cell-based, human
Procedure: (§1) Various plasmid-transfected or pharmacologically treated cells or tissue samples were homogenized and extracted for Western blot analyses. About 10-20 μg whole cell lysate were used for Western blotting. A 1 mg/ml concentration of total protein from cell lysates was employed for immunoprecipitation. Some extracts subjected to immunoprecipitation were incubated with antibodies, as indicated, for 4 h at 4° C., followed by incubation for 4 h or overnight with protein A-Sepharose 4B or protein G-Sepharose beads (Sigma-Aldrich) before proceeding to Western blot analysis. Each experiment was repeated at least three independent times.

[3] = test system: FAK autophosphorylation at Tyr397; assay: Western blot of FAK autophosphorylation at Tyr397 in HCT-116 cells; assay type: cell-based, human
Procedure: (§2) Cells or tissue samples were homogenized and extracted for Western blotting. For immunoprecipitation, proteins were incubated with antibodies as indicated at 4° C. overnight, followed by incubation for 4 hrs with protein A-Sepharose 4B beads (Sigma-Aldrich). All experiments were conducted at least three independent times.

[4] = test system: paxillin/FAK complex; assay: specificity: paxillin/FAK complex in NIH3T3; assay type: cell-based, mouse; conditions: overexpressed in NIH3T3
Chain of paxillin/FAK complex (Q8VI36 whole entry): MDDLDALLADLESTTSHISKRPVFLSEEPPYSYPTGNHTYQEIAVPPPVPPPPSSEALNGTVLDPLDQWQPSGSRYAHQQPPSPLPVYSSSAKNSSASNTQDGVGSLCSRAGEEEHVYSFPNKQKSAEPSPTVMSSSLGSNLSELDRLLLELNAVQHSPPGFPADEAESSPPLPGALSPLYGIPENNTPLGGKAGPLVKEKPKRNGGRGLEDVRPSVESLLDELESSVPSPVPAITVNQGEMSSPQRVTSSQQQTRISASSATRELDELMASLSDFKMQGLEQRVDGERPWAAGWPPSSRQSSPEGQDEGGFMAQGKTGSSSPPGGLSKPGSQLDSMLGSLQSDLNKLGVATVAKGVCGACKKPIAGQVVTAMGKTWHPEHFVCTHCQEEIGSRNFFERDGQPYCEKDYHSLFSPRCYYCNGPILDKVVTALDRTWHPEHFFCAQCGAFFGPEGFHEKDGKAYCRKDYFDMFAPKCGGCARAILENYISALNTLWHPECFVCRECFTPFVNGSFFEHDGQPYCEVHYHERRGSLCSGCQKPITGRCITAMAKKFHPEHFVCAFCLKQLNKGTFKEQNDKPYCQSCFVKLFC
Chain of paxillin/FAK complex (P34152 whole entry, further chain): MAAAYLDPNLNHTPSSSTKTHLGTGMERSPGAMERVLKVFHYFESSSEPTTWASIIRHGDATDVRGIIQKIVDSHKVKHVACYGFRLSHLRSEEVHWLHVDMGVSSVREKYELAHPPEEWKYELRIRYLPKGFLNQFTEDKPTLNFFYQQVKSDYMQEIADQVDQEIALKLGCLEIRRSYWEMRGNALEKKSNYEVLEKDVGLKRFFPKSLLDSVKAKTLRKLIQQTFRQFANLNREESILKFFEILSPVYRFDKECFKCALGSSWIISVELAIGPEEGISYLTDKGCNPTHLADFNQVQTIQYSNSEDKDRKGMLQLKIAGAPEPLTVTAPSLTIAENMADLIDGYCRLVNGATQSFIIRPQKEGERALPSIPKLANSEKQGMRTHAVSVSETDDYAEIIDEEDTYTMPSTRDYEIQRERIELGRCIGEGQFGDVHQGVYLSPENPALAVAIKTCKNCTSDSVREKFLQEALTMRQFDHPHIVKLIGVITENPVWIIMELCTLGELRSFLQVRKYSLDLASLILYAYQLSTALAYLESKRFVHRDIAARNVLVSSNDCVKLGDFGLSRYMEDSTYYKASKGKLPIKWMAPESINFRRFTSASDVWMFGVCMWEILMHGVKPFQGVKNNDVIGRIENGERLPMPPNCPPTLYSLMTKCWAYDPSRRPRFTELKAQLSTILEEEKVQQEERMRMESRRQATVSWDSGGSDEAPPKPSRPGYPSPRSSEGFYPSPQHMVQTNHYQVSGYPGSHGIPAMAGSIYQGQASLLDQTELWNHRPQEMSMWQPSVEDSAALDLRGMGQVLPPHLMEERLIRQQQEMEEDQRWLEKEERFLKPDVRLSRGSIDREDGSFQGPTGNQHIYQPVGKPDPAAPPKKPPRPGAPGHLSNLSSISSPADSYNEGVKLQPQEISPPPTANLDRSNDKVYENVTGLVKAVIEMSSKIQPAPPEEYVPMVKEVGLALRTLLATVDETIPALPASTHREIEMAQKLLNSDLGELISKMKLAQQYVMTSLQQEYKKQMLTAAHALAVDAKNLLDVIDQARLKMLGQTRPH

[5] = test system: MDA-MB-231 cells; assay: BrdU incorporation cell proliferation assay, MDA-MB-231; assay type: cell-based, human; conditions: MDA-MB-231 transfectants; compared to mock and triple-mutant cells
Procedure: At 24 h after transfection, 2×10^4 cells were serum starved for 24 h. Cells were then washed twice with DMEM and incubated for 16 h in DMEM plus 10% FBS and 100 μM BrdU (Sigma-Aldrich). After that, cells were fixed, permeabilized, heated with DNase I, and processed for immunofluorescence staining, with anti-BrdU (1:200, Sigma-Aldrich) antibody, as described previously^39, with a few modifications. Cells were then counted in multiple fields and scored for BrdU-positive staining in each independent experiment.

[6] = test system: MDA-MB-231 cells; assay: in vivo lung metastasis after tail vein injection, bioluminescence; parameters: species or system nude mice; conditions: MDA-MB-231 transfectants, 84 days after injection, vs mock and triple mutant
Procedure: (§3) All mouse experiments were approved by the Institutional Animal Care and Use Committee, National Taiwan University (Taipei, Taiwan). All experimental procedures were performed in accordance with the protocols and the ethical regulations approved by the Institutional Animal Care and Use Committees of National Taiwan University (Taipei, Taiwan). Female nu/nu mice were purchased from the National Laboratory Animal Center (Taipei, Taiwan). For tumorigenesis, 1×10^6 MDA-MB-231 stably transfected pools expressing GFP-tagged FAK/25aa, its triple (FAK/25aa^E380A/K381A/Q382A)or double (FAK/25aa^R385A/S386A) mutant, or a mock transfected control that had been selected by 500 μg/ml G418 for 2 weeks were injected into the 3rd mammary fat pad of eight-week-old female nu/nu mice. Stably transfected pools of each construct were injected in 100 μl PBS. Tumor volumes and numbers were measured at 12 weeks after injection and then excised, photographed, and weighted. For tumor metastasis, 1×10^6 MDA-MB-231 cells, described above, that were labeled with luciferase by lentiviral infection were resuspended in 100 μl PBS and injected into the tail vein of six-week-old female nu/nu mice. Lung metastasis was monitored by bioluminescent imaging using an IVIS spectrum imaging system. Lung metastasis was measured on the respective day after injection.

[7] = test system: NIH3T3; assay: specificity: β1 integrin-mediated cell migration in NIH3T3; assay type: cell-based, mouse; conditions: overexpressed in NIH3T3
[8] = test system: HCT-116 cells; assay: BrdU incorporation assay, HCT-116; assay type: cell-based, human; conditions: HCT-116 cells overexpressing the peptide
Procedure: A BrdU incorporation assay was performed. Briefly, serum-starved cells were incubated in DMEM with 10% FBS and 100 μM BrdU (Sigma-Aldrich) for 16 hrs. Cells were fixed, permeabilized, treated with DNase I, and processed for immunofluorescence staining with anti-BrdU (Sigma-Aldrich) antibody. The BrdU-positive staining cells were scored.

[9] = test system: FAK phospho-Tyr397; assay: Western blot of FAK phospho-Tyr397 in MDA-MB-231 cells; assay type: cell-based, human
Procedure: as §1

[10] = test system: HCT-116 cells; assay: in vivo tumorigenicity, subcutaneous xenograft mouse model; conditions: ectopic expression in HCT-116 cells, subcutaneous in SCID mice; 21 days
Procedure: Here. FAK and FRNK transfectants were used as controls. […] All results are presented as the means ±s.d. from at least three independent experiments (*. p<0.05, compared with the corresponding mock control). […] An in vivo tumorigenicity assay was conducted using a xenograft mouse model by subcutaneously injecting cells described above into SCID mice. Mice were sacrificed 21 days after tumor injection. Tumor mass (left, top), protein expression (left, bottom), and tumor weight (right) of the xenografts were measured. Five mice were assessed for each group (Scale bar, 1 cm. *, p<0.05, compared with the corresponding mock control).

[11] = test system: HCT-116 cells; assay: anchorage-independent growth assay, HCT-116; assay type: cell-based, human
Procedure: An anchorage-independent growth assay was conducted with several modifications. Briefly, 5×10^4 cells were seeded in a 0.3% agar in DMEM containing 10% FBS over the bottom 0.6% agar layer in DIVIEM. After incubation for 14 days, the number and size of colonies were scored.

[12] = test system: β4 integrin/FAK complex; assay: immunoprecipitation of β4 integrin and FAK in HCT-116 cells; assay type: cell-based, human
Procedure: as §2

[13] = test system: MDA-MB-231 cells; assay: in vivo tumorigenesis, orthotopic injection into mammary fat pad; conditions: stably expressing MDA-MB-231 cells in mammary fat pad of nude mice; 12 weeks
Procedure: as §3

[14] = test system: β4 integrin at Tyr1526; assay: Western blot of β4 integrin tyrosine phosphorylation in MDA-MB-231 cells; assay type: cell-based, human; conditions: 10 μM
Procedure: as §1

[15] = biological target: T1, focal adhesion kinase (FAK) (human, UniProt Q05397 2-1052); assay: HA-tagged β4 fragments in HEK-293 cells (FIG. 9F)
T1 construct: Endogenous FAK in lysates of human cells and tissues; also called full-length FAK; FAX [sic]
T1 sequence (Q05397 2-1052 limits assumed): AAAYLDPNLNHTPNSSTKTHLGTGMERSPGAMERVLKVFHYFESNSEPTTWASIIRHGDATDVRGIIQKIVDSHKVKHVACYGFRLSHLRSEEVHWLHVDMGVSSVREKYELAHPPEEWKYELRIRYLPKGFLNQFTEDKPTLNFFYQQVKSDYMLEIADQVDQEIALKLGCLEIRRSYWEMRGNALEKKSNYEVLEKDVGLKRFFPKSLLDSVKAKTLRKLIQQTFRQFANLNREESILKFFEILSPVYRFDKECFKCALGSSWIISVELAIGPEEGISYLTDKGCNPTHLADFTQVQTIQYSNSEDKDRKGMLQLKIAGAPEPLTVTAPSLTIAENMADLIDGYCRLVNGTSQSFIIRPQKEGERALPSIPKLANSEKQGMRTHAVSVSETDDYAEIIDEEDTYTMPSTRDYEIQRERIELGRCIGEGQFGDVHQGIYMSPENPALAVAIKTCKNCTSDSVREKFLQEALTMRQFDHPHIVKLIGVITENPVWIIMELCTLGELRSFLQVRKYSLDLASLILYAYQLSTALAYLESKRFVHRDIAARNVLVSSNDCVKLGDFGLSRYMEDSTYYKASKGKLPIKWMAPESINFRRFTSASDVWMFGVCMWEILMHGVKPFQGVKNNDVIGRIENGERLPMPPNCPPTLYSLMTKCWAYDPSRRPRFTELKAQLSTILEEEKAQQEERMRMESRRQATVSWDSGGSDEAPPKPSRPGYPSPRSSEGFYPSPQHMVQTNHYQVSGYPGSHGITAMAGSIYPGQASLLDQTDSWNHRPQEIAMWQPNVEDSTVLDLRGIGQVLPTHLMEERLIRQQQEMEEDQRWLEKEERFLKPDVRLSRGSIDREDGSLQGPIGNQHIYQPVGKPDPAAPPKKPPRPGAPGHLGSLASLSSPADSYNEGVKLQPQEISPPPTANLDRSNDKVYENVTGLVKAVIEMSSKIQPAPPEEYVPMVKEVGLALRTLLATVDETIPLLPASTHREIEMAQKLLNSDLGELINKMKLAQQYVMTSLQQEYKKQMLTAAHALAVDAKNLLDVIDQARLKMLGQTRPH

[16] = biological target: T2, β4 integrin (human, UniProt P16144 28-1822, limits assumed); assay: overexpression in HCT-116 cells
T2 construct: Endogenous full-length β4 integrin in lysates or immunoprecipitates; In cells it is paired with α6 integrin; also called integrin β4; ITGB4
T2 sequence (P16144 28-1822 limits assumed): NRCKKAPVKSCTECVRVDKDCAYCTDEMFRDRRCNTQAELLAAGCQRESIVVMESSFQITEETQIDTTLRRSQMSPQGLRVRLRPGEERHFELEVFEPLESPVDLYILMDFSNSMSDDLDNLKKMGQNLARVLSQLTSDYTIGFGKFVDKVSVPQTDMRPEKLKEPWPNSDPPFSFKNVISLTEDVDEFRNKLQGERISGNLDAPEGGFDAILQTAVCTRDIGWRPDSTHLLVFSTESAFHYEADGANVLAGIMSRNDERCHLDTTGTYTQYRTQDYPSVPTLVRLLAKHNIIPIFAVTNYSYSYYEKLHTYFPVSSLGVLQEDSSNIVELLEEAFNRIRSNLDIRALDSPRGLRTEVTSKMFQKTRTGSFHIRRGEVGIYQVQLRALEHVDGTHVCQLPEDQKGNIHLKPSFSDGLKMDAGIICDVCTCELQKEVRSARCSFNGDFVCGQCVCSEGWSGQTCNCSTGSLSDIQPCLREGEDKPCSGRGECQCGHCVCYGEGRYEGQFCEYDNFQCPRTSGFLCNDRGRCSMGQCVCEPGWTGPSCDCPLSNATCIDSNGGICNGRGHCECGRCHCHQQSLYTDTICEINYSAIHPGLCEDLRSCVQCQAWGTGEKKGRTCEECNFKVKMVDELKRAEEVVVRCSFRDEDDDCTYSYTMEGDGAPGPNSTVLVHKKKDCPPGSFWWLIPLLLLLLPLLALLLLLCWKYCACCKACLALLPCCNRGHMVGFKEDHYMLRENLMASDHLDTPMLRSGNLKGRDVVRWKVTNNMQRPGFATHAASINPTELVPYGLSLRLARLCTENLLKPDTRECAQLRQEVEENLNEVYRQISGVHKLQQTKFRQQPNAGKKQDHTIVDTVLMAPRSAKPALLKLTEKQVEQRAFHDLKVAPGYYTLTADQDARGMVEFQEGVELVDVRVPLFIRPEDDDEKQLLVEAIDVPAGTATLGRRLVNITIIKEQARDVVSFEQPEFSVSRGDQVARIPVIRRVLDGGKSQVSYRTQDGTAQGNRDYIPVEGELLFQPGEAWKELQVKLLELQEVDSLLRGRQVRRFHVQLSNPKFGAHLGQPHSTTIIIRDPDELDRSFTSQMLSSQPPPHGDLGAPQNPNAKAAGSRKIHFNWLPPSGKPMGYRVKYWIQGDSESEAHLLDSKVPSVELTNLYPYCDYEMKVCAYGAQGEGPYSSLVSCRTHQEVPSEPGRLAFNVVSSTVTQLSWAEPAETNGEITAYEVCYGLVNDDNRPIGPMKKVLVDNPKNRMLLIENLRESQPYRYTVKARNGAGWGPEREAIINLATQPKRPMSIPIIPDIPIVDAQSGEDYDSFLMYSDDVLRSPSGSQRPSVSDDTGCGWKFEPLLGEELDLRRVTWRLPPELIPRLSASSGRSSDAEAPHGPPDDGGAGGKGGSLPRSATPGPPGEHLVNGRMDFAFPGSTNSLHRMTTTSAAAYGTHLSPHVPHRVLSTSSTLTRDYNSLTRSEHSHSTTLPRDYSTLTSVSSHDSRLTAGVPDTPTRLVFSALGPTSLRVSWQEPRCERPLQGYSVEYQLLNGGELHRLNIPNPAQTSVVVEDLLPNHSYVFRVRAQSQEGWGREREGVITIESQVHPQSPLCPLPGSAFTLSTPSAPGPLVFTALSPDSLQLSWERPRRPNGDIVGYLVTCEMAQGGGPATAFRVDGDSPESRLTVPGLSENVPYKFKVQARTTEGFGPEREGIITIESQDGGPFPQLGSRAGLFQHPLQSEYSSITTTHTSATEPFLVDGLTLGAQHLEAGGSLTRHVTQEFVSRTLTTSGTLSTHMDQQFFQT

[17] = biological target: T2, β4 integrin; assay: Ni-bead pull-down from MDA-MB-231 lysate, anti-β4 integrin Western blot (FIG. 1(g))
[18] = biological target: T2, β4 integrin; assay: GST pull-down from HCT-116 lysate, anti-β4 integrin Western blot (FIG. 9(C))

Molecule: TAT-FAK/25aa: synthesized peptide, FAK/25aa fused with the TAT peptide; sequence GRKKRRQRRRPQLANNEKQGVRSHTVSVSETDDYAE1 (GRKKRRQRRRPQLANNEKQGVRSHTVSVSETDDYAEI)
- foci less formed in soft agar [1]: approximately 30%
- formation of the β4 integrin/FAK complex ([2]; MDA-MB-231 cells, extracellular administration of peptide (10 μM)): capable of alleviating

Molecule: FAK/25aa: the 376th to 400th amino acids of FAK, SEQ ID NO: 3; overexpressed GFP-tagged in cells (LANNEKQGVRSHTVSVSETDDYAEI; also: GFP tag)
- Tyr397-autophosphorylation of FAK ([3]; transfected HCT-116 cells): diminished
- paxillin/FAK complex [4]: not affected
- level of FAK co-immunoprecipitated by β4 integrin ([2]; MDA-MB-231 cells, increased expression of the peptide): attenuated in a dose-dependent manner
- cell proliferation [5]: decreased
- lung metastatic nodules [6]: less-developed
- β1 integrin-mediated cell migration [7]: not affected
- cell proliferation [8]: impaired
- FAK phospho-Tyr397 ([9]; transfected MDA-MB-231 cells, in comparison to mock or triple-mutant transfectants): decreased
- volume and weight of implanted colon cancer tumors [10]: significantly reduced
- anchorage-independent growth ([11]; HCT-116 transfectants, compared with mock and triple-mutant cells): considerably decreased
- interaction between β4 integrin and FAK ([12]; overexpressed motif): ablated
- size and weight of tumors [13]: significant reductions

Molecule: CS(=O)(=O)c1cccc(CNc2nc(Nc3ccc4c(c3)CCC(=O)N4)ncc2C(F)(F)F)c1 [PF-573,228, reference compound]
- anchorage-independent growth (soft agar) ([11]; HCT-116 cells treated with FAK inhibitor, DMSO control): impairs
- β4 integrin/FAK complex formation ([12]; FAK activity inhibited, 10 μM): still formed

Molecule: CC(C)(C)n1nc(-c2ccc(Cl)cc2)c2c(N)ncnc21 [PP2]
- FAK activation in response to EGF stimulation ([3]; HCT-116 cells, EGF stimulation): ablated
- FAK activation ([3]; HCT-116 cells, blockade of Src activity): alleviate
- formation of the β4 integrin/FAK complex ([2]; MDA-MB-231 cells, 10 μM, compared to PP3- or DMSO-treated cells): markedly reduced
- interaction between β4 integrin and FAK under EGF stimulation ([2]; serum-starved MDA-MB-231 cells, EGF 10 ng/ml, inhibitor 10 μM): remained absent
- phosphorylation level of β4 integrin at Tyr1526 [14]: reduced
- phosphorylation level of FAK at Tyr397 ([9]; MDA-MB-231 cells, 10 μM): reduced
- β4 integrin and FAK association in response to EGF stimulation ([12]; EGF stimulation): ablated
- β4 integrin/FAK complex formation ([12]; blockade of Src activity): decrease

B1: β4-CalX (other, UniProt P16144 979-1084, looked up)
chain: VNITIIKEQARDVVSFEQPEFSVSRGDQVARIPVIRRVLDGGKSQVSYRTQDGTAQGNRDYIPVEGELLFQPGEAWKELQVKLLELQEVDSLLRGRQVRRFHVQLS
notes: domain: Na+/Ca2+ exchanger homologous motif (CalX); also called β4 Na+/Ca2+ exchanger homologous motif; HA-tagged β4-CalX; not shown: HA tag of the pKH3 vector
- binding result [15]: no binding

B2: GFP-tagged FAK/25aa^R385A/S386A (peptide)
chain: LANNEKQGVAAHTVSVSETDDYAEI
modifications: also: GFP tag
notes: Positions are printed in full-length FAK numbering; also called double mutant of FAK/25aa; not shown: GFP of the pEGFP vector
- binding result [16]: binds

B3: His-tagged FAK/N375 (other)
chain: MAAAYLDPNLNHTPSSSAKTHLGTGMERSPGAMERVLKVFHYFENSSEPTTWASIIRHGDATDVRGIIQKIVDCHKVKNVACYGLRLSHLQSEEVHWLHLDMGVSNVREKFELAHPPEEWKYELRIRYLPKGFLNQFTEDKPTLNFFYQQVKNDYMLEIADQVDQEIALKLGCLEIRRSYGEMRGNALEKKSNYEVLEKDVGLRRFFPKSLLDSVKAKTLRKLIQQTFRQFANLNREESILKFFEILSPVYRFDKECFKCALGSSWIISVELAIGPEEGISYLTDKGANPTHLADFNQVQTIQYSNSEDKDRKGMLQLKIAGAPEPLTVTAPSLTIAENMADLIDGYCRLVNGATQSFIIRPQKEGERALPSIPK
notes: Recombinant protein from E. coli; not shown: His tag
- binding result [17]: no binding

B4: GST-FAK/N375 (other)
chain: MAAAYLDPNLNHTPSSSAKTHLGTGMERSPGAMERVLKVFHYFENSSEPTTWASIIRHGDATDVRGIIQKIVDCHKVKNVACYGLRLSHLQSEEVHWLHLDMGVSNVREKFELAHPPEEWKYELRIRYLPKGFLNQFTEDKPTLNFFYQQVKNDYMLEIADQVDQEIALKLGCLEIRRSYGEMRGNALEKKSNYEVLEKDVGLRRFFPKSLLDSVKAKTLRKLIQQTFRQFANLNREESILKFFEILSPVYRFDKECFKCALGSSWIISVELAIGPEEGISYLTDKGANPTHLADFNQVQTIQYSNSEDKDRKGMLQLKIAGAPEPLTVTAPSLTIAENMADLIDGYCRLVNGATQSFIIRPQKEGERALPSIPK
notes: Recombinant protein from E. coli; not shown: GST of the pGEX-2T vector
- binding result [18]: no binding
